Results from the supplement of paper PMC10883282.
± gives the standard deviation of the averaged measurements.

Key:
Test in all cases: relative viability vs DMSO control (72 h) (fraction); higher = more viable cells
SW982 = system: SW982
Outline: (§1)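 Sarcoma cell lines were seeded in 384-well plates at densities chosen for 80–90% confluence, then 24 h later given 2.5 µl of serially diluted compound drawn from source plates spanning 10 mM to 0.0002 mM. They were held 72 h at 37 °C, 5% CO2, with 0.1% DMSO vehicle and a 5 µM positive control included. Relative viability was read with ATPLite as percent growth and averaged over up to triplicate wells. Rescaling placed full at 1 and none at 0.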

SK-ES-1 = system: SK-ES-1
Outline: as §1

RD = system: RD
Outline: as §1

KHOS-240S = system: KHOS-240S
Outline: as §1

RD-ES = system: RD-ES
Outline: as §1

`C[C@]12O[C@H](C[C@]1(O)CO)n1c3ccccc3c3c4c(c5c6ccccc6n2c5c31)CNC4=O` [Lestaurtinib] showed a relative viability (SW982; 0.00017 µM) of 1.03 ± 0.019, a relative viability (SW982; 0.00051 µM) of 1.03 ± 0.025 and a relative viability (SW982; 0.00152 µM) of 1.06 ± 0.021. The relative viability (SW982; 0.00457 µM) was 1.03 ± 0.011, the relative viability (SW982; 0.01372 µM) was 0.895 ± 0.032 and the relative viability (SW982; 0.04115 µM) was 0.697 ± 0.041. The relative viability (SW982; 0.1235 µM) was 0.494 ± 0.0063, the relative viability (SW982; 0.3704 µM) was 0.381 ± 0.042 and the relative viability (SW982; 1.111 µM) was 0.314 ± 0.021. It also gave a relative viability (SW982; 3.333 µM) of 0.23 ± 0.01, a relative viability (SW982; 10 µM) of 0.0243 ± 0.0052 and a relative viability (SK-ES-1; 0.00017 µM) of 1.1 ± 0.028. It also gave a relative viability (SK-ES-1; 0.00051 µM) of 1.06 ± 0.025, a relative viability (SK-ES-1; 0.00152 µM) of 1.07 ± 0.064 and a relative viability (SK-ES-1; 0.00457 µM) of 1 ± 0.035. It also gave a relative viability (SK-ES-1; 0.01372 µM) of 0.881 ± 0.074, a relative viability (SK-ES-1; 0.04115 µM) of 0.543 ± 0.027 and a relative viability (SK-ES-1; 0.1235 µM) of 0.329 ± 0.012. It also gave a relative viability (SK-ES-1; 0.3704 µM) of 0.0863 ± 0.0069, a relative viability (SK-ES-1; 1.111 µM) of 0.0742 ± 0.0038 and a relative viability (SK-ES-1; 3.333 µM) of 0.0554 ± 0.0012. For the same compound, the relative viability (SK-ES-1; 10 µM) was 0.0776 ± 0.0011, the relative viability (RD; 0.00017 µM) was 1.05 ± 0.062 and the relative viability (RD; 0.00051 µM) was 1.064 ± 0.0053. For the same compound, the relative viability (RD; 0.00152 µM) was 1.09 ± 0.053, the relative viability (RD; 0.00457 µM) was 1.09 ± 0.045 and the relative viability (RD; 0.01372 µM) was 1.1 ± 0.05. It also gave a relative viability (RD; 0.04115 µM) of 1.06 ± 0.051, a relative viability (RD; 0.1235 µM) of 1.01 ± 0.058 and a relative viability (RD; 0.3704 µM) of 0.892 ± 0.026. For the same compound, the relative viability (RD; 1.111 µM) was 0.645 ± 0.014, the relative viability (RD; 3.333 µM) was 0.326 ± 0.016 and the relative viability (RD; 10 µM) was 0.126 ± 0.0075. The relative viability (KHOS-240S; 0.00017 µM) was 1.086 ± 0.01, the relative viability (KHOS-240S; 0.00051 µM) was 1.06 ± 0.013 and the relative viability (KHOS-240S; 0.00152 µM) was 1.1 ± 0.03. It also gave a relative viability (KHOS-240S; 0.00457 µM) of 1.04 ± 0.018, a relative viability (KHOS-240S; 0.01372 µM) of 1.06 ± 0.027 and a relative viability (KHOS-240S; 0.04115 µM) of 1.05 ± 0.028. For the same compound, the relative viability (KHOS-240S; 0.1235 µM) was 0.892 ± 0.029, the relative viability (KHOS-240S; 0.3704 µM) was 0.525 ± 0.033 and the relative viability (KHOS-240S; 1.111 µM) was 0.345 ± 0.023. For the same compound, the relative viability (KHOS-240S; 3.333 µM) was 0.169 ± 0.0091, the relative viability (KHOS-240S; 10 µM) was 0.0619 ± 0.011 and the relative viability (RD-ES; 0.00017 µM) was 0.996 ± 0.033. For the same compound, the relative viability (RD-ES; 0.00051 µM) was 1 ± 0.053, the relative viability (RD-ES; 0.00152 µM) was 0.999 ± 0.02 and the relative viability (RD-ES; 0.00457 µM) was 0.989 ± 0.044. It also gave a relative viability (RD-ES; 0.01372 µM) of 0.936 ± 0.02, a relative viability (RD-ES; 0.04115 µM) of 0.804 ± 0.034 and a relative viability (RD-ES; 0.1235 µM) of 0.497 ± 0.012. It also gave a relative viability (RD-ES; 0.3704 µM) of 0.288 ± 0.014, a relative viability (RD-ES; 1.111 µM) of 0.16 ± 0.0038 and a relative viability (RD-ES; 3.333 µM) of 0.0482 ± 0.0073. For the same compound, the relative viability (RD-ES; 10 µM) was 0.0633 ± 0.0032.

`CN1CCN(c2ccc(C(=O)Nc3n[nH]c4ccc(Cc5cc(F)cc(F)c5)cc34)c(NC3CCOCC3)c2)CC1` [Entrectinib] showed a relative viability (SW982; 0.00017 µM) of 1.03 ± 0.019, a relative viability (SW982; 0.00051 µM) of 1.05 ± 0.024 and a relative viability (SW982; 0.00152 µM) of 1.05 ± 0.014. The relative viability (SW982; 0.00457 µM) was 1.07 ± 0.012, the relative viability (SW982; 0.01372 µM) was 1.05 ± 0.017 and the relative viability (SW982; 0.04115 µM) was 1.06 ± 0.059. The relative viability (SW982; 0.1235 µM) was 1.06 ± 0.041, the relative viability (SW982; 0.3704 µM) was 0.991 ± 0.039 and the relative viability (SW982; 1.111 µM) was 0.865 ± 0.023. It also gave a relative viability (SW982; 3.333 µM) of 0.548 ± 0.04, a relative viability (SW982; 10 µM) of 0.0591 ± 0.025 and a relative viability (SK-ES-1; 0.00017 µM) of 1.09 ± 0.025. For the same compound, the relative viability (SK-ES-1; 0.00051 µM) was 1.04 ± 0.032, the relative viability (SK-ES-1; 0.00152 µM) was 1.05 ± 0.047 and the relative viability (SK-ES-1; 0.00457 µM) was 1.06 ± 0.049. For the same compound, the relative viability (SK-ES-1; 0.01372 µM) was 1.03 ± 0.057, the relative viability (SK-ES-1; 0.04115 µM) was 1.1 ± 0.013 and the relative viability (SK-ES-1; 0.1235 µM) was 1.05 ± 0.034. The relative viability (SK-ES-1; 0.3704 µM) was 0.959 ± 0.046, the relative viability (SK-ES-1; 1.111 µM) was 0.844 ± 0.038 and the relative viability (SK-ES-1; 3.333 µM) was 0.465 ± 0.035. The relative viability (SK-ES-1; 10 µM) was 0.105 ± 0.0077, the relative viability (RD; 0.00017 µM) was 1.08 ± 0.049 and the relative viability (RD; 0.00051 µM) was 1.13 ± 0.026. For the same compound, the relative viability (RD; 0.00152 µM) was 1.14 ± 0.078, the relative viability (RD; 0.00457 µM) was 1.13 ± 0.065 and the relative viability (RD; 0.01372 µM) was 1.11 ± 0.068. The relative viability (RD; 0.04115 µM) was 1.1 ± 0.09, the relative viability (RD; 0.1235 µM) was 1.11 ± 0.067 and the relative viability (RD; 0.3704 µM) was 1.07 ± 0.052. It also gave a relative viability (RD; 1.111 µM) of 0.934 ± 0.051, a relative viability (RD; 3.333 µM) of 0.589 ± 0.014 and a relative viability (RD; 10 µM) of 0.0669 ± 0.029. For the same compound, the relative viability (KHOS-240S; 0.00017 µM) was 1.06 ± 0.035, the relative viability (KHOS-240S; 0.00051 µM) was 1.061 ± 0.0065 and the relative viability (KHOS-240S; 0.00152 µM) was 1.1 ± 0.08. It also gave a relative viability (KHOS-240S; 0.00457 µM) of 1.08 ± 0.071, a relative viability (KHOS-240S; 0.01372 µM) of 1.08 ± 0.082 and a relative viability (KHOS-240S; 0.04115 µM) of 1.07 ± 0.058. For the same compound, the relative viability (KHOS-240S; 0.1235 µM) was 1.08 ± 0.073, the relative viability (KHOS-240S; 0.3704 µM) was 1 ± 0.066 and the relative viability (KHOS-240S; 1.111 µM) was 0.939 ± 0.089. For the same compound, the relative viability (KHOS-240S; 3.333 µM) was 0.617 ± 0.063, the relative viability (KHOS-240S; 10 µM) was 0.0159 ± 0.0044 and the relative viability (RD-ES; 0.00017 µM) was 0.991 ± 0.016. It also gave a relative viability (RD-ES; 0.00051 µM) of 1.02 ± 0.044, a relative viability (RD-ES; 0.00152 µM) of 0.986 ± 0.021 and a relative viability (RD-ES; 0.00457 µM) of 0.986 ± 0.018. The relative viability (RD-ES; 0.01372 µM) was 0.992 ± 0.027, the relative viability (RD-ES; 0.04115 µM) was 0.997 ± 0.022 and the relative viability (RD-ES; 0.1235 µM) was 0.99 ± 0.011. For the same compound, the relative viability (RD-ES; 0.3704 µM) was 0.929 ± 0.023, the relative viability (RD-ES; 1.111 µM) was 0.776 ± 0.044 and the relative viability (RD-ES; 3.333 µM) was 0.552 ± 0.029. The relative viability (RD-ES; 10 µM) was 0.0781 ± 0.017.
